In brackets after ≈: the same amount, converted by molar mass. Entries after “also recorded” stand apart in the source; their conditions may differ. Where two headings read alike, the source gives them in different places. Where a SMILES comes first, the peptide text is derived from it.
Columns and labels:
S. aureus ATCC 29213 = assay type: cell-based, Staphylococcus aureus; settings: for MIC (ug/mL) S. aureus: ATCC 29213
How it was run: (§1)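 MIC taken as lowest peptide level showing no visible growth after 20-24 h at 37° C. Twofold series 128-0.5 μg/mL in Mueller-Hinton broth, polypropylene plates, final inoculum 2-8×10^5 cfu/mL, per CLSI with cationic-peptide adaptations.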

[1] = tested on: E. coli ATCC 25922, Salmonella Enteritidis, S. aureus ATCC 29213; test: Broth microdilution, panel result (at least one / all strains), Example 2; assay type: cell-based; set-up: key to inhibitory activity (asterisk): *Indicates inhibitory activity; settings: for inhibitory activity (asterisk): Table 14, against at least one of E. coli ATCC 25922, Salmonella Enteritidis, S. aureus ATCC 29213; for spectrum of antimicrobial activity: panel of E. coli, Salmonella Enteritidis, S. aureus, up to 128 μg/mL
How it was run: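 CLSI broth microdilution adapted for cationic peptides, in MHB with a final inoculum of 2-8×10^5 cfu/mL in polypropylene plates. Peptides were serially diluted from 128 down to 0.5 μg/mL and incubated 20-24 h at 37° C. MIC is the lowest concentration with no visible growth.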

[2] = tested on: Salmonella enterica serovar Enteritidis (human clinical isolate); assay type: cell-based; settings: serovar Enteritidis (human clinical isolate)
How it was run: as §1

E. coli ATCC 25922 = assay type: cell-based, Escherichia coli
How it was run: as §1

[3] = alamarBlue cell viability assay (cytotoxicity); assay type: cell-based, human; settings: human, HEK293 cells; for viability at 4 h, 64 µg/mL: at 64 μg/mL; for viability at 4 h, 128 µg/mL: at 128 μg/mL
Description: (§2) The human embryonic kidney cell line HEK293 and the corresponding growth media and supplements were purchased from the ATCC. The cells were maintained in Eagle's Minimum Essential Medium (EMEM) supplemented with 10% fetal bovine serum (FBS) and 1% Penicillin-Streptomycin solution and grown in a 5% CO2 incubator at 37° C. […] Cells were incubated overnight to allow them to adhere. […] TX-100 was diluted to 2% in UltraPure deionized water and added as a positive control. Complete growth medium was added to the peptides and TX-100 containing wells. Spent growth medium of wells with adhered cells was replaced with the contents of wells containing serially diluted peptides or TX-100. Cells were incubated for four hours at 37° C. in 5% CO2 incubator. Growth medium containing peptides or TX-100 was replaced with fresh growth medium containing 10% (v/v) alamarBlue (Bio-Rad Laboratories, Hercules, CA, USA) and incubated for 20 h. Fluorescence was measured at excitation of 540 nm and emission of 590 nm in a Cytation 5 plate reader (Agilent BioTek, Winooski, VT, USA) and results recorded and analyzed with Gen5 software (Agilent BioTek, Winooski, VT, USA). The average fluorescence reads of TX-100 and growth media only wells were used to calculate 0% and 100% cell viability, respectively. The percentage of viable cells at each peptide concentration was determined by Formula 1: […]

HEK293 cells = test: alamarBlue cell viability assay (cytotoxicity); assay type: cell-based, human; settings: concentrations up to 128 μg/mL
Description: as §2

SMILES: CC[C@H](C)[C@H](NC(=O)CNC(=O)[C@H](CCCNC(=N)N)NC(=O)[C@H](CC(C)C)NC(=O)[C@H](CC(C)C)NC(=O)CN)C(=O)N[C@@H](CC(C)C)C(=O)NCC(=O)N[C@@H](C)C(=O)NCC(=O)N[C@@H](CCCCN)C(=O)N[C@@H](CCCCN)C(=O)N[C@H](C(=O)N[C@H](C(=O)N[C@@H](CS)C(=O)NCC(=O)N[C@@H](CC(C)C)C(=O)N[C@@H](CO)C(=O)NCC(=O)N[C@@H](CC(C)C)C(=O)N[C@@H](CS)C(=O)O)C(C)C)[C@@H](C)CC [OdMa2] (H-GLLRGILGAGKKIVCGLSGLC-OH; N-terminus and C-terminus assumed)
- MIC (ug/mL) S. aureus (S. aureus ATCC 29213): 4 to 8 µg/mL
- inhibitory activity (asterisk) [1]: 64.* GLLRGILGAGKKIVCGLSGLC
- spectrum of antimicrobial activity [1]: active against all three bacteria
- MIC (ug/mL) S. Enteritidis [2]: 8 to 16 µg/mL
- MIC against E. coli (E. coli ATCC 25922): 4 µg/mL (≈ 1.97 µM)
- viability at 4 h, 64 µg/mL [3]: < 75%
- viability at 4 h, 128 µg/mL [3]: ~0%
- cytotoxicity (HEK293 cells): high levels of cytotoxicity at concentrations higher than their MICs

SMILES: CC(C)C[C@H](NC(=O)[C@H](CCCNC(=N)N)NC(=O)[C@@H]1CCCN1C(=O)[C@H](Cc1c[nH]cn1)NC(=O)[C@@H]1CCCN1C(=O)[C@@H]1CCCN1C(=O)[C@H](CCCNC(=N)N)NC(=O)[C@@H]1CCCN1C(=O)[C@@H]1CCCN1C(=O)[C@@H](NC(=O)[C@H](CCC(N)=O)NC(=O)[C@H](CCC(N)=O)NC(=O)[C@@H]1CCCN1C(=O)[C@H](CCCNC(=N)N)NC(=O)[C@@H]1CCCN1C(=O)[C@@H](N)CCCNC(=N)N)C(C)C)C(=O)N[C@@H](CCCNC(=N)N)C(=O)N[C@@H](CCCNC(=N)N)C(=O)O [PaVa1, RPRPQQVPPRPPHPRLRR] (H-RPRPQQVPPRPPHPRLRR-OH)
- MIC (ug/mL) S. aureus (S. aureus ATCC 29213): > 128 µg/mL
- MIC (ug/mL) S. Enteritidis [2]: 4 to 8 µg/mL
- MIC against Salmonella Enteritidis [2]: 4 to 8 µg/mL
- MIC (ug/mL) E. coli (E. coli ATCC 25922; ATCC 25922): 2 to 4 µg/mL
- MIC against E. coli (E. coli ATCC 25922; ATCC 25922): 2 to 4 µg/mL
- cytotoxicity (HEK293 cells): not to be toxic to HEK293 cells at any of the concentrations tested; also recorded: not toxic against either porcine erythrocytes or HEK293 cells

SMILES: CC(C)C[C@H](NC(=O)CNC(=O)[C@@H](NC(=O)[C@@H](NC(=O)CNC(=O)[C@H](CS)NC(=O)[C@H](CC(C)C)NC(=O)[C@@H](NC(=O)[C@H](CCCCN)NC(=O)[C@H](CCCCN)NC(=O)CNC(=O)[C@@H](NC(=O)CNC(=O)[C@H](CC(C)C)NC(=O)[C@@H](NC(=O)[C@H](CCCCN)NC(=O)CNC(=O)[C@H](CC(C)C)NC(=O)[C@H](CC(C)C)NC(=O)CN)C(C)C)C(C)C)C(C)C)C(C)C)[C@@H](C)O)C(=O)N[C@@H](CS)C(=O)O [PeNi1] (H-GLLGKVLGVGKKVLCGVTGLC-OH; N-terminus and C-terminus assumed)
- MIC against S. aureus (S. aureus ATCC 29213): 4 µg/mL (≈ 1.99 µM)
- inhibitory activity (asterisk) [1]: 363.* GLLGKVLGVGKKVLCGVTGLC
- spectrum of antimicrobial activity [1]: active against all three bacteria
- MIC (ug/mL) S. Enteritidis [2]: 8 to 16 µg/mL
- MIC against E. coli (E. coli ATCC 25922): 4 µg/mL (≈ 1.99 µM)
- viability at 4 h, 64 µg/mL [3]: < 75%
- viability at 4 h, 128 µg/mL [3]: ~0%
- cytotoxicity (HEK293 cells): high levels of cytotoxicity at concentrations higher than their MICs

From patent US20260242416A1, “ANTIMICROBIAL PEPTIDES” (priority 2023, published 2026)
